Results reported in patent US8536132B2, “Lymphatic zip codes in tumors and pre-malignant lesions” (Sanford-Burnham Medical Research Institute, priority 2006, dated 2013).
Marks after values point to notes of the source that are not given here.

Assays:
[1] = test system: MMTV-PyMT premalignant lesions; experiment: In vivo phage homing to MMTV-PyMT premalignant lesions; design: species or system mouse
Experimental: (§1) The following cell lines were maintained in DMEM supplemented with 10% FCS: C8161 human melanoma, MDA-MB-435 human breast cancer, KRIB human osteosarcoma, and human prostate cancer cells PPC1, DU145. LNCaP human prostate cancer cell line was grown in RPMI 1640 medium with 10 mM HEPES, 1 mM sodium pyruvate and 1.5 g/L sodium bicarbonate supplemented with 10% FCS. M12 human prostate cancer cell line was cultured in RPMI 1640 with 5 μg/ml insulin-transferrin-sodium selenite (ITS), 2.5 μg/ml fungizone, 50 μg/ml gentamycin, 0.2 μM dexamethasone, 10 ng/ml epidermal growth factor (EGF), and 5% FCS (Bae et al., 1998). To produce tumors, nude BALB/c and C56BL/6 mice were subcutaneously (C8161, KRIB, and PPC1) or orthotopically ([…], PPC1, DU145, M12, and LNCaP) injected with 1×10^6 tumor cells. Transgenic mouse tumor models included TRAMP prostate cancer, MMTV-PyMT breast cancer, and K14-HPV16 cervical cancer. To initiate cervical carcinogenesis, female K14-HPV16 mice (Arbeit et al., 1994) were treated with 17β-estradiol (E2; (Arbeit et al., 1996; Giraudo et al., 2004). Briefly, one-month-old virgin female transgenic (heterozygous K14-HPV16, 1203#1) and nontransgenic (FVB/n) mice were anesthetized with isoflurane, and continuous release pellets that deliver E2 at doses of 0.05 mg over 60 days (Innovative Research of America, Sarasota, Fla., USA) were implanted subcutaneously in the dorsal back skin. Subsequent pellets were implanted at 3 and 5 months of age for a total of 6 months of hormone treatment. K14-HPV16 mice were maintained in the FVB/n background (FVB/n; The Jackson Laboratory). The mice were maintained in accordance with the University of California, San Francisco (UCSF) institutional guidelines governing the care of laboratory mice. The animal experimentation was approved by Animal Research Committees at UCSF or The Burnham Institute.
(§2) In vivo homing specificity of phage was tested as described (Hoffman, 2004). Briefly, mice bearing tumors were anesthetized and intravenously injected with 5×10^9 pfu of phage. […]

[2] = test system: K14-HPV16/E2 cervical dysplasia; experiment: In vivo phage homing to K14-HPV16/E2 cervical dysplasia (CIN-3); design: species or system mouse
Experimental: as §1
(§3) In vivo homing specificity of phage was tested as described (Hoffman, 2004). Briefly, mice bearing tumors were anesthetized and intravenously injected with 5×10^9 pfu of phage. After 7 min, the mice were perfused through the heart with PBS containing 0.5% BSA. The tumor and control organs were dissected from each mouse and the phage were rescued and tittered. For histology analysis, the mice were perfused with 4% PFA 30 min after the injection of phage. Tissues were embedded in Tissue-Tek O.C.T. and 5 μm sections were prepared for phage immunostaining.

[3] = test system: cell suspension derived from pre-malignant prostate lesions; experiment: Phage binding to cell suspension derived from pre-malignant prostate lesions; assay type: cell-based, mouse; conditions: phage clones
Experimental: (§4) An NNK-encoded CX7C library display on T7Select415-1 phage (Novagen) was prepared as previously described (Laakkonen et al., 2002). Phage selection and validation have been described (Hoffman, 2004). A two-step procedure was designed for the selection of peptides targeting the tumor lymphatic vessels of pre-malignant prostate lesions and prostate tumor. First, the phage library was incubated with cells derived from normal prostate to subtract the phage that bind to normal prostate. Second, the anti-podoplanin magnetic beads were used to isolate lymphatic endothelial cells. 2-3 rounds of ex vivo selection and 2-3 rounds of in vivo selections were performed. For the ex vivo selections, cell suspensions were prepared from normal prostates of tumor-free littermates of TRAMP mice, pre-malignant prostates of 14- to 16-week-old TRAMP mice, and tumor tissues of 25- to 28-week-old TRAMP mice. Collagenase IA (1 mg/ml, Sigma) was used to disperse the tissues. About 1×10^7 normal prostate cells were incubated at 4° C. for 3 hrs with […] plaque forming units (pfu) of T7 phage displaying a CX7C peptide library. The samples were centrifuged at 1200 rpm for 10 min, the supernatant (the normal prostate-subtracted phage library) was recovered and then incubated overnight at 4° C. with 5×10^7 cells derived from pre-malignant prostate tissue or prostate tumor. The cells were washed to remove unbound phage, incubated with rat anti-mouse podoplanin for 45 min at 4° C., and washed three times with cold PBS containing 0.5% BSA. Podoplanin-positive cells were then isolated using M450 sheep anti-rat IgG Dynabeads (M450; Dynal, Oslo, Norway). Phage that bound to the podoplanin-positive cell population were rescued and amplified in E. coli. In vivo phage library screening was performed as described (Laakkonen et al., 2002).

[4] = test system: K14-HPV16/E2 and MMTV-PyMT lesions and tumors; experiment: Fluorescent AGR peptide homing to lesions and tumors of K14-HPV16/E2 and MMTV-PyMT mice; assay type: in vivo, mouse
Experimental: The frozen sections were prepared for immunohistological analysis.

[5] = test system: DU145 orthotopic xenografts; experiment: In vivo phage homing to DU145 orthotopic xenografts; design: species or system mouse; conditions: for phage homing to DU145 xenografts (in words): i.v. injected phage
Experimental: as §1, §3

[6] = test system: M12 orthotopic xenografts; experiment: In vivo phage homing to M12 orthotopic xenografts; design: species or system mouse; conditions: for phage homing to M12 xenografts (in words): i.v. injected phage
Experimental: as §1, §3

[7] = test system: MDA-MB-435 orthotopic xenografts; experiment: In vivo phage homing to MDA-MB-435 orthotopic xenografts; design: species or system mouse
Experimental: as §1, §3

PPC1 s.c. xenografts = experiment: In vivo phage homing to PPC1 s.c. xenografts; design: species or system mouse
Experimental: as §1, §2

[8] = test system: LNCaP orthotopic xenografts; experiment: In vivo phage homing to LNCaP orthotopic xenografts; design: species or system mouse; conditions: for phage homing to LNCaP xenografts (in words): i.v. injected phage
Experimental: as §1, §3

[9] = test system: tumor derived cell suspensions (TRAMP); experiment: Phage binding to TRAMP tumor derived cell suspensions; assay type: cell-based, mouse; conditions: phage clones
Experimental: as §4

[10] = test system: PPC1 orthotopic xenografts; experiment: In vivo phage homing to PPC1 orthotopic xenografts; design: species or system mouse; conditions: for phage homing to PPC1 orthotopic xenografts (in words): i.v. injected phage
Experimental: as §1, §3

KRIB xenografts = experiment: In vivo phage homing to KRIB xenografts; design: species or system mouse
Experimental: as §1, §3

K14-HPV16 skin cancer = experiment: In vivo homing to K14-HPV16 skin cancer; design: species or system mouse
Experimental: as §1, §3

[11] = phage homing in vivo, MMTV-PyMT premalignant lesions
[12] = phage homing in vivo, K14-HPV16/E2 cervical dysplasia
[13] = phage homing in vivo, DU145 orthotopic xenografts
[14] = phage homing in vivo, M12 orthotopic xenografts
[15] = phage homing in vivo, MDA-MB-435 orthotopic xenografts
[16] = phage homing in vivo, PPC1 s.c. xenografts
[17] = phage homing in vivo, LNCaP orthotopic xenografts
[18] = phage homing in vivo, PPC1 orthotopic xenografts
[19] = phage homing in vivo, KRIB xenografts
[20] = phage homing in vivo, K14-HPV16 skin cancer

CAGRRSAYC [homing peptide for pre-malignant TRAMP prostate lesions]
phage homing to MMTV-PyMT premalignant lesions (in words) ([1]; i.v. injected phage): little homing of the phage
Fold over control phage [1, 11]: 2 fold
Specific Homing [1, 11]: No
phage homing to K14-HPV16/E2 pre-malignant cervical lesions (in words) ([2]; i.v. injected phage): little homing of the phage
Fold over control phage [2, 12]: 5 fold
Specific Homing [2, 12]: No
binding to cell suspension from pre-malignant prostate lesions (in words) [3]: bound
peptide binding to MMTV-PyMT dysplastic breast lesion [4]: weakly positive
peptide homing to lesions or malignant tumors in K14-HPV16/E2 and MMTV-PyMT models [4]: no detectable homing of the peptide

CREAGRKAC [homing peptide for prostate tumor lymphatics]
phage homing to DU145 xenografts (in words) ([5]; listed as REA phage): homed
phage homing to DU145 xenografts (in words) ([5]; listed as REA-phage): Significant phage homing
Fold over control phage [5, 13]: 14 fold
Specific Homing [5, 13]: Yes
phage homing to M12 xenografts (in words) ([6]; listed as REA phage): homed
phage homing to M12 xenografts (in words) ([6]; listed as REA-phage): Significant phage homing
Fold over control phage [6, 14]: 24 fold
Specific Homing [6, 14]: Yes
phage homing to MDA-MB-435 tumors (in words) ([7]; i.v. injected phage): negative for REA binding
Fold over control phage [7, 15]: 4 fold
Specific Homing [7, 15]: No
phage homing to subcutaneous PPC1 xenografts versus orthotopic (in words) (PPC1 s.c. xenografts; i.v. injected phage, 7 min circulation): homed less efficiently
Fold over control phage (PPC1 s.c. xenografts; [16]): 6 fold
Specific Homing (PPC1 s.c. xenografts; [16]): No
phage homing to LNCaP xenografts (in words) ([8]; listed as REA phage): homed
phage homing to LNCaP xenografts (in words) ([8]; listed as REA-phage): Significant phage homing
Fold over control phage [8, 17]: 20 fold
Specific Homing [8, 17]: Yes
binding to TRAMP tumor derived cell suspensions (in words) [9]: robust binding
phage homing to PPC1 orthotopic xenografts (in words) ([10]; listed as REA phage): homed
phage homing to PPC1 orthotopic xenografts (in words) ([10]; listed as REA-phage): Significant phage homing
Fold over control phage [10, 18]: 25 fold
Specific Homing [10, 18]: Yes
phage homing to KRIB xenografts (in words) (KRIB xenografts; i.v. injected phage): negative for REA binding
Fold over control phage (KRIB xenografts; [19]): 7^‡ fold
Specific Homing (KRIB xenografts; [19]): Yes
homing to K14-HPV16 skin cancers (in words) (K14-HPV16 skin cancer; i.v. injection, K14-HPV16 mice): negative for REA binding
Fold over control phage (K14-HPV16 skin cancer; [20]): 4 fold
Specific Homing (K14-HPV16 skin cancer; [20]): No
